# Measured values as given in ChEMBL document CHEMBL1146050, “Depeptidization efforts on P3-P2' alpha-ketoamide inhibitors of HCV NS3-4A serine protease: effect on HCV replicon activity” (Bioorg Med Chem Lett, 2006).
# Numbered stars: 1 amine (or outer) side, 2 acyl side, 3 side chain; on linkers, the order of the positions; unused ones are H or OH. Square brackets hold non-standard residues; d marks the D form. Peptide text beside a SMILES is read from it. * marks the point of attachment. NMeAla(cPr) = CN[C@@H](CC1CC1)C(=O)O; Isobutyloxycarbonyl = CC(C)COC(=O)*; X1 = O=C(C(=O)[*:2])C(CC1CC1)N[*:1]; Ala(cPr) = N[C@@H](CC1CC1)C(=O)O; Chg = N[C@H](C(=O)O)C1CCCCC1; Phg = N[C@H](C(=O)O)c1ccccc1
# Assays:
# [1] = biological target: NS3 (Hepatitis C virus, UniProt A3EZJ3); assay: Inhibitory activity against HCV NS3 protease; set-up: species or system Hepacivirus hominis; conditions: read-out: Ki app
# [2] = system: Hepatitis C virus; assay: Inhibitory activity against HCV replicon; format: functional, Hepacivirus hominis
# Chain of NS3 (A3EZJ3 whole entry): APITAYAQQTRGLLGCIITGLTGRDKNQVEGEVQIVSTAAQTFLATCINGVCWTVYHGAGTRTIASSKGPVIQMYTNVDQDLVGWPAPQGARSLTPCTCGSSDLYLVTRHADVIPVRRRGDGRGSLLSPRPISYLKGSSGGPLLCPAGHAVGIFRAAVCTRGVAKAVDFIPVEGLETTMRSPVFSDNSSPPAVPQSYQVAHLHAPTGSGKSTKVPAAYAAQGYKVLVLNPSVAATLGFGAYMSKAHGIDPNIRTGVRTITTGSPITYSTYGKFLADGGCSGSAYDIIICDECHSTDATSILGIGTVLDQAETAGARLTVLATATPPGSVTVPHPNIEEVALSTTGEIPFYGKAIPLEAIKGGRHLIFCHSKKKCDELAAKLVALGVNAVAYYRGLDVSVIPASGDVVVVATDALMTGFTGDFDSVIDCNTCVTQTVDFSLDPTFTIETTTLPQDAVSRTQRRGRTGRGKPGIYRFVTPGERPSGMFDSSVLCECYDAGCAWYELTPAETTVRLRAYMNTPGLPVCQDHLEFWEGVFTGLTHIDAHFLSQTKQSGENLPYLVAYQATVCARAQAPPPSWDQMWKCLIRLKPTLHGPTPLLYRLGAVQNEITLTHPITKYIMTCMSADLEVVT
Ki [1] [nM],IC90 [2] [µM],SMILES
230,> 5,CC(C)COC(=O)N[C@H](C(=O)NN(CC1CC1)C(=O)NC(CC1CC1)C(=O)C(=O)NCC(=O)N[C@H](C(=O)O)c1ccccc1)C1CCCCC1 (stereo partly specified)
60,0.95,CC(C)COC(=O)N[C@H](C(=O)N(C)[C@@H](CC1CC1)C(=O)NC(CC1CC1)C(=O)C(=O)NCC(=O)N[C@H](C(=O)N(C)C)c1ccccc1)C1CCCCC1 (stereo partly specified) (Isobutyloxycarbonyl-[Chg][NMeAla(cPr)][X1]G[Phg]-NMe2)
42000,> 5,CC(C)COC(=O)N[C@@H](C1CCCCC1)[C@@H](O)CC(=O)N[C@@H](CC1CC1)C(=O)NC(CC1CC1)C(=O)C(=O)NCC(=O)N[C@H](C(=O)O)c1ccccc1 (stereo partly specified)
50,> 5,CC(C)COC(=O)N[C@H](C(=O)N[C@@H](CC1CC1)C(=O)NC(CC1CC1)C(=O)C(=O)NCC(=O)N[C@H](C(=O)N(C)C)c1ccccc1)C1CCCCC1 (stereo partly specified) (Isobutyloxycarbonyl-[Chg][Ala(cPr)][X1]G[Phg]-NMe2)
10000,> 5,CC(C)COC(=O)N[C@@H](C1CCCCC1)[C@@H](O)CN(CC1CC1)C(=O)NC(CC1CC1)C(=O)C(=O)NCC(=O)N[C@H](C(=O)O)c1ccccc1 (stereo partly specified)
2100,> 5,CC(C)COC(=O)N[C@H](C(=O)CN(CC1CC1)C(=O)NC(CC1CC1)C(=O)C(=O)NCC(=O)N[C@H](C(=O)O)c1ccccc1)C1CCCCC1 (stereo partly specified)
15,> 5,CC(C)COC(=O)N[C@H](C(=O)N[C@@H](CC1CC1)C(=O)NC(CC1CC1)C(=O)C(=O)NCC(=O)N[C@H](C(=O)O)c1ccccc1)C1CCCCC1 (stereo partly specified) (Isobutyloxycarbonyl-[Chg][Ala(cPr)][X1]G[Phg]-OH)
120,> 5,CC(C)COC(=O)N[C@H](C(=O)N(C)[C@@H](CC1CC1)C(=O)NC(CC1CC1)C(=O)C(=O)NCC(=O)N[C@H](C(=O)O)c1ccccc1)C1CCCCC1 (stereo partly specified) (Isobutyloxycarbonyl-[Chg][NMeAla(cPr)][X1]G[Phg]-OH)
